In patent publication US4011138A, “Process for the preparation of cholesterol esterase” (Kyowa Hakko Kogyo Co., Ltd., priority 1974, dated 1977):

Tested on: cholesterol esterase
Assay: Substrate specificity: relative activity of cholesterol esterase on cholesterol esters
Type: biochemical, Pseudomonas fluorescens
Conditions: activity on cholesterol linoleate defined as 100; 37° C, 30 minutes, pH 7.5
Procedure: The determination of the enzyme activity on cholesterol linoleate is carried out by the following method.
A mixture having the following composition is prepared and shaken at 37° C for 30 minutes. […]
During the above-described operation, the substrate cholesterol linoleate is hydrolyzed by the action of cholesterol esterase into cholesterol and linoleic acid, and subsequently the formed cholesterol is oxidized to cholestenone by the action of cholesterol oxidase. After 30 minutes of shaking, the mixture is immediately subjected to the determination of residual unreacted cholesterol linoleate by Zurkowsky's method [Clinical Chemistry 10, 451 (1964)]. Then, the amount of the reacted cholesterol linoleate is calculated. The enzyme activity is expressed by "unit." A "unit" of enzyme activity is defined as that amount of enzyme which will decompose 1 μmole of cholesterol linoleate in 1 minute under the above-described conditions. The enzyme activities on other cholesterol esters are variable depending upon the kind of substrates and are determined in the similar manner.

First: CC(=O)O[C@H]1CC[C@@]2(C)C(=CC[C@H]3[C@@H]4CC[C@H]([C@H](C)CCCC(C)C)[C@@]4(C)CC[C@@H]32)C1 [Cholesterol acetate]
Second: CCCCCCCCCCCCCCCC(=O)O[C@H]1CC[C@@]2(C)C(=CC[C@H]3[C@@H]4CC[C@H]([C@H](C)CCCC(C)C)[C@@]4(C)CC[C@@H]32)C1 [Cholesterol palmitate]
The Relative activity of the first is higher: 80 for the first, 26 for the second.

First: CCCCC/C=C\C/C=C\CCCCCCCC(=O)O[C@H]1CC[C@@]2(C)C(=CC[C@H]3[C@@H]4CC[C@H]([C@H](C)CCCC(C)C)[C@@]4(C)CC[C@@H]32)C1 [Cholesterol linoleate]
Second: CCCCCCCC/C=C\CCCCCCCC(=O)O[C@H]1CC[C@@]2(C)C(=CC[C@H]3[C@@H]4CC[C@H]([C@H](C)CCCC(C)C)[C@@]4(C)CC[C@@H]32)C1 [Cholesterol oleate]
The Relative activity of the first is higher: 100 for the first, 93 for the second.

In the case of `CCCCCCCCCCCCCCCCCC(=O)O[C@H]1CC[C@@]2(C)C(=CC[C@H]3[C@@H]4CC[C@H]([C@H](C)CCCC(C)C)[C@@]4(C)CC[C@@H]32)C1` [Cholesterol stearate], the Relative activity is reported as 58.

Tested on: cholesterol esterase
Assay: Inhibitory effects of various substances on the enzyme activity
Type: biochemical, Pseudomonas fluorescens
Conditions: not given

`O=[N+]([O-])[O-].[Ag+]` [AgNO3] was tested, and the “activity of the enzyme inhibited by heavy metal ions” value (from here on “activity of the enzyme inhibited”) was “inhibited”.
In the case of `O=S(=O)([O-])[O-].[Cu+2]` [CuSO4], the “activity of the enzyme inhibited” value is reported as “inhibited”.
`[Cl][Hg][Cl]` [HgCl2] was tested, and the “activity of the enzyme inhibited” value was “inhibited”.

Same assay, conditions: 0.1 ml of 4 mM solution of the substance added, kept at 37° C for 15 minutes; substrate cholesterol linoleate, 37° C for 10 minutes; ratio of residual to initial cholesterol linoleate

`O=C(O)CN(CCN(CC(=O)O)CC(=O)O)CC(=O)O` [Ethylenediaminetetraacetic acid] and `c1cnc2c(c1)ccc1cccnc12` [o-Phenanthroline] are the same in “Inhibition ratio (%)” value: 0% for the first, 0% for the second.

Same assay, conditions: cholesterol esterase, 4000 µM

`c1ccc(-c2ccccn2)nc1` [2,2'-Dipyridyl] and `O=C(O)c1cc[c]([Hg][Cl])cc1` [p-Chloromercuri benzoic acid (p-CMB), p-Chloromercuri benzoic acid] are the same in “Inhibition ratio (%)” value: 0% for the first, 0% for the second.

First: O=[N+]([O-])[O-].[Ag+] [AgNO3]
Second: O=S(=O)([O-])[O-].[Cu+2] [CuSO4]
The “Inhibition ratio (%)” value of the first is lower: 20% for the first, 100% for the second.

`[Ba+2].[Cl-].[Cl-]` [BaCl2] and `[Ca+2].[Cl-].[Cl-]` [CaCl2] are the same in “Inhibition ratio (%)” value: 0% for the first, 0% for the second.

Compared with `O=S(=O)([O-])[O-].[Fe+2]` [FeSO4], `[Cl][Hg][Cl]` [HgCl2] is higher in “Inhibition ratio (%)” value: 0% for the first, 100% for the second.

`[Cl][Mn][Cl]` [MnCl2] and `[Cl-].[Cl-].[Zn+2]` [ZnCl2] are the same in “Inhibition ratio (%)” value: 0% for the first, 0% for the second.

Tested on: Pseudomonas fluorescens KY 3955 (FERM-P No. 2611) ATCC 31156
Assay: Cholesterol esterase activity of culture filtrates with fatty acids or fatty acid esters added to the fermentation medium
Type: cell-based
Conditions: additive at 5 g/l in soybean meal fermentation medium, 30° C for 24 hours; None = 20

Compared with `CCCCC/C=C\C/C=C\CCCCCCCC(=O)O` [linoleic acid], `CCCCCCCC/C=C\CCCCCCCC(=O)O` [oleic acid] is lower in “Activity (cholesterol esterase activity of culture filtrate)” value: 310 unit/l for the first, 170 unit/l for the second.

First: CCCCCCCCCCCCCCCCCC(=O)O [stearic acid]
Second: CCCCCCCC/C=C\CCCCCCCC(=O)OCC(COC(=O)CCCCCCC/C=C\CCCCCCCC)OC(=O)CCCCCCC/C=C\CCCCCCCC [triolein]
The “Activity (cholesterol esterase activity of culture filtrate)” value of the first is higher: 230 unit/l for the first, 200 unit/l for the second.

With `CCCCC/C=C\C/C=C\CCCCCCCC(=O)OCC(COC(=O)CCCCCCC/C=C\C/C=C\CCCCC)OC(=O)CCCCCCC/C=C\C/C=C\CCCCC` [trilinolein] the “Activity (cholesterol esterase activity of culture filtrate)” value was 250 unit/l.
